Results as given in PubChem BioAssay (NCI).
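Each compound was tested at five concentrations against cells in 96-well plates for 48 hours. Abbreviation: GI50, concentration required for 50% inhibition of growth. TGI denotes the concentration required for complete inhibition of growth.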

What was measured:
Assay in all cases: NCI-60 cell line screen, 48 h
NCI-H226 lung = test system: NCI-H226 lung
NCI-H522 lung = test system: NCI-H522 lung
SNB-75 CNS = test system: SNB-75 CNS
PC-3 prostate = test system: PC-3 prostate
CAKI-1 renal = test system: CAKI-1 renal
KM12 colon = test system: KM12 colon
COLO 205 colon = test system: COLO 205 colon
IGROV1 ovarian = test system: IGROV1 ovarian
U251 CNS = test system: U251 CNS
M14 melanoma = test system: M14 melanoma

Structure (SMILES) | GI50 (NCI-H226 lung) | TGI (NCI-H226 lung) | GI50 (NCI-H522 lung) | TGI (NCI-H522 lung) | GI50 (SNB-75 CNS) | TGI (SNB-75 CNS) | GI50 (PC-3 prostate) | TGI (PC-3 prostate) | GI50 (CAKI-1 renal) | TGI (CAKI-1 renal) | GI50 (KM12 colon) | TGI (KM12 colon) | GI50 (COLO 205 colon) | TGI (COLO 205 colon) | GI50 (IGROV1 ovarian) | TGI (IGROV1 ovarian) | GI50 (U251 CNS) | TGI (U251 CNS) | GI50 (M14 melanoma) | TGI (M14 melanoma)
COc1cc(CCNC(=O)OC(C)(C)C)c2c(c1OC)SSSSS2 | 4.3 µM | 24.4 µM | 2.1 µM | 4.18 µM | 2.27 µM | 4.56 µM | 3.72 µM | 13.6 µM | 2.17 µM | 4.28 µM | 3.67 µM | 12.2 µM | 2.19 µM | 4.35 µM | 2.2 µM | 4.63 µM | 2.47 µM | 5.28 µM | 4.13 µM | 50.7 µM
C=CCOC(=O)Nc1cccn([C@H](CC(C)C)C(=O)NCCC(C)C)c1=O | > 100 µM | > 100 µM | 63.8 µM | > 100 µM | 4.91 µM | > 100 µM | 49.7 µM | > 100 µM | 29 µM | > 100 µM | 92.8 µM | > 100 µM | > 100 µM | > 100 µM | 60.4 µM | > 100 µM | 92.3 µM | > 100 µM | > 100 µM | > 100 µM
C=CC(=O)Nc1cccc(Oc2nc(Nc3ccc(N4CCN(C)CC4)cc3OC)ncc2Cl)c1 | 1.81 µM | 5.66 µM | 0.308 µM | 1.75 µM | 1.52 µM | 3.98 µM | 2.19 µM | 7.03 µM | 0.985 µM | 2.44 µM | 3.46 µM | 11.2 µM | 2.28 µM | 5.07 µM | 1.29 µM | 3.56 µM | 1.49 µM | 3.03 µM | 1.82 µM | 3.47 µM
CN(C)C=Nc1c(I)cc(I)c(CCC(=O)O)c1I | > 100 µM | > 100 µM | > 100 µM | > 100 µM | > 100 µM | > 100 µM | 91.5 µM | > 100 µM | > 100 µM | > 100 µM | > 100 µM | > 100 µM | > 100 µM | > 100 µM | > 100 µM | > 100 µM | > 100 µM | > 100 µM | > 100 µM | > 100 µM
CCCN(CCC)c1ccc(C=O)c(C)c1 | 11.3 µM | > 71.5 µM | 37.4 µM | > 100 µM | 22.3 µM | 97.7 µM | 32.7 µM | > 100 µM | 33.7 µM | > 100 µM | 44.7 µM | > 100 µM | 29.1 µM | > 100 µM | 61 µM | > 100 µM | 38.5 µM | > 100 µM | 44.8 µM | > 100 µM
O=C1c2c(Cl)c(Cl)c(Cl)c(Cl)c2C(=O)C2(Cl)CC=CCC12Cl (stereo not drawn) | 1.97 µM | 4.88 µM | 1.76 µM | 3.52 µM | 1.84 µM | 3.34 µM | 1.8 µM | 3.51 µM | 1.93 µM | 3.68 µM | 1.84 µM | 3.56 µM | 1.52 µM | 2.89 µM | 1.81 µM | 3.86 µM | 1.67 µM | 3.06 µM | 1.67 µM | 3.19 µM
Cc1ccc(OCCOCCOCCOCCOCCOc2ccc(C)n(O)c2=S)c(=S)n1O | 0.0576 µM | 14.7 µM | 0.0386 µM | > 100 µM | 0.456 µM | 18.1 µM | 0.345 µM | > 100 µM | 0.0453 µM | > 100 µM | 0.0573 µM | 39.1 µM | 0.0428 µM | > 100 µM | 0.0372 µM | > 72.5 µM | 0.0633 µM | > 100 µM | 0.0619 µM | 0.43 µM
CN(C)CCOc1ccccc1NC1=C(Cl)C(=O)C(Nc2ccccc2OCCN(C)C)=C(Cl)C1=O | 23.6 µM | > 57.9 µM | 0.502 µM | 1.14 µM | > 39.4 µM | > 82.1 µM | 9.84 µM | > 31.8 µM | 1.14 µM | 2.36 µM | 20.9 µM | > 100 µM | 1.78 µM | 3.77 µM | 0.636 µM | 1.48 µM | 10.2 µM | 39.5 µM | > 27 µM | > 84.6 µM
COc1cc2nc3cc([N+](=O)[O-])ccc3c(NCCNCC(C)O)c2cc1OC (stereo not drawn) | 1.05 µM | 3.18 µM | 0.224 µM | 1.06 µM | 0.675 µM | 2.07 µM | 0.512 µM | 2.46 µM | 2.5 µM | 10.9 µM | 0.619 µM | 2.87 µM | 0.368 µM | 1.57 µM | 0.495 µM | 2.26 µM | 0.442 µM | 2.26 µM | 1.25 µM | 2.96 µM
OCC1CCCC1O (stereo not drawn) | – | > 100 µM | – | > 100 µM | – | > 100 µM | – | > 100 µM | – | > 100 µM | – | > 100 µM | – | > 100 µM | – | > 100 µM | – | > 100 µM | – | > 100 µM
CCCCCCCCCCCCCCCCN(CC)CC | 3.74 µM | 16.9 µM | 1.76 µM | 3.48 µM | 2.39 µM | 9.03 µM | 2.16 µM | 5.97 µM | 1.69 µM | 3.24 µM | 1.87 µM | 3.59 µM | 2.01 µM | 3.82 µM | 1.79 µM | 3.36 µM | – | – | 1.94 µM | 3.84 µM
